According to patent US20130123285A1, “Compositions and Methods for Targeting A3G:RNA Complexes” (UNIVERSITY OF ROCHESTER, priority 2010, published 2013):

Key:
[1] = tested on: pseudotyped HIV in TZM-bl cells; assay: Single round infectivity of pseudotyped HIV in wild type TZM-bl cells; type: cell-based; settings: viruses +/- Vif
Text: (§1) Viral particles were harvested from media of producer cells, normalized based on p24 content and equal number of virus particles were used to infect wild type TZM-bl or TZM-bl-A3G cells. […] However, HIV replication and, consequently Tat expression, are anticipated to be inhibited if dissolution of HMM by A3G activators was able to stimulate host defense.

A3G = biological target: T1, A3G (Homo sapiens, UniProt Q9HC16); assay: In vitro DNA deaminase activity of purified A3G; type: biochemical; settings: purified A3G treated at varying concentrations
T1 construct: polyhistidine (C); made in house; host or cells: Baculovirus-infected Sf9 insect cells

[2] = tested on: pseudotyped HIV in TZM-bl-A3G cells; assay: microbe, parasite or virus in culture; type: cell-based
Text: as §1

A3G:RNA complexes = biological target: T2, A3G:RNA complexes (Homo sapiens, UniProt Q9HC16); assay: EMSA of A3G:RNA complexes assembled on radiolabeled RNA (disaggregation of HMM); type: binding; settings: range of concentrations
T2 construct: polyhistidine (C); made in house; host or cells: Baculovirus-infected Sf9 insect cells
Procedure: The Electrophoretic Gel Mobility Shift Assay (EMSA) provides a visual and quantitative measure of the efficiency of A3G-RNA complex formation. EMSA was used initially to determine the optimum buffer conditions, molar ratio of A3G to RNA as well as the temperature and the duration of the complex assembly reaction.
The four compounds depicted in FIG. 7 were evaluated for their ability to disaggregate A3G:RNA complexes by treating A3G:RNA complexes assembled on radiolabeled RNA with each chemistry over a range of concentrations and then evaluated for size reduction of HMM by EMSA.

[3] = biological target: T3, HMM A3G (A3G:RNA complexes assembled in cells) (Homo sapiens, UniProt Q9HC16); assay: In vitro deaminase activity of HMM isolated from TZM-bl-A3G cells; type: biochemical; settings: 20 μM
T3 construct: expressed in transfected cells; host or cells: TZM-bl cells stably transfected with A3G cDNA (TZM-bl-A3G); The HMM fraction was isolated from cell extracts by size exclusion chromatography
Procedure: Experiments were performed to directly test whether the compounds could activate antiviral activity from HMM in living cells. For this a cell line that expressed A3G as HMM was created. TZM-bl reporter cells were transfected with A3G cDNA and a cell line with stable expression of A3G was selected (TZM-bl-A3G). To verify HMM A3G, cell extracts were prepared from TZM-bl-A3G cells and fractionated by size exclusion chromatography. […] Isolated HMM had low levels of in vitro deaminase activity (4% dC to dU) that could be activated 10-fold by RNase digestion (FIG. 12, top panel). Treatment of HMM with 20 μM Clonidine and Altanserin activated A3G deaminase activity 6- and 8-fold respectively compared to untreated HMM (FIG. 12, bottom panel).

APOBEC3G (hA3G) = APOBEC3G (hA3G) (Homo sapiens, UniProt Q9HC16 Q9HC16:1-384); assay: EMSA; Kd stated for optimal AU-rich RNA with G or C every fourth nucleotide; 99 nt RNA selected for the assay; settings: tags: C-terminal polyhistidine tag
Procedure: Experiments were performed to determine what length and sequence of nonspecific RNA would yield the most efficient formation of A3G:RNA complexes. A3G was expressed using the Baculovirus system and purified by nickel affinity chromatography. RNAs varying in GC and AU content were synthesized chemically or transcribed in vitro in lengths varying from 10 to 99 nucleotides (nt). A3G:RNA complexes were assembled in vitro with these RNAs over a range of A3G concentrations and the yield of small and large complexes determined by electrophoretic mobility shift on native gels (EMSA). […] A 99 nt RNA was selected for the HTS assay. The RNA used for the following data had the sequence: […]

T1 sequence (Q9HC16 whole entry): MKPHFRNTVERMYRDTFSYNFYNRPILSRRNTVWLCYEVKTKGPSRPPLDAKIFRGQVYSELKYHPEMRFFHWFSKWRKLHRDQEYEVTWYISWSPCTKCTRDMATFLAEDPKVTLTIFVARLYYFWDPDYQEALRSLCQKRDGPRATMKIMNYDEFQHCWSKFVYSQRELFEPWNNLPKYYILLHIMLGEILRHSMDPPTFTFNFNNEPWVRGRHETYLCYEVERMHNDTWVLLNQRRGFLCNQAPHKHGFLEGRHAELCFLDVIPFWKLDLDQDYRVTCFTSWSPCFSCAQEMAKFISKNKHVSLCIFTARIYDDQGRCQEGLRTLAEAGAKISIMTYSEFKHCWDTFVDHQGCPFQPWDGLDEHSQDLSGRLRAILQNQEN
T3 sequence (Q9HC16 whole entry, one chain of several): as the sequence (Q9HC16 whole entry) above
T2 sequence (Q9HC16 whole entry, one chain of several): as the sequence (Q9HC16 whole entry) above
Chain of APOBEC3G (hA3G) (Q9HC16 whole entry, one chain of several): as the sequence (Q9HC16 whole entry) above

Molecule | antiviral activity in TZM-bl cells [1] | inhibition of A3G deaminase activity (A3G) | inhibition at 20 µM ([2]; Human immunodeficiency virus 1, read-out: inhibition of viral infectivity) [%] | antiviral activity in TZM-bl-A3G cells ([2]; viruses +/- Vif) | dissolution of A3G:RNA aggregates (HMM) by EMSA (A3G:RNA complexes) | activation of A3G deaminase activity compared to untreated HMM [3] [fold] | Kd (APOBEC3G (hA3G)) [µM]
O=C(c1ccc(F)cc1)C1CCN(CCn2c(=S)[nH]c3ccccc3c2=O)CC1 [Altanserin] | not in TZM-bl cells | none of the hits inhibited A3G deaminase activity | > 40 | induced antiviral activity in TZM-bl-A3G cells | completely dissociate RNA from a portion of the A3G complexes | 8 | 
Clc1cccc(Cl)c1N=C1NCCN1 [Clonidine] | not in TZM-bl cells | none of the hits inhibited A3G deaminase activity |  |  | dose-dependent dissolution of A3G:RNA aggregates to faster migrating lower molecular mass (LMM) complexes | 6 | 
99 nt nonspecific AU-rich RNA (ssRNA) RNA: GGGAACAAAAGCUGGGUACCGGGCCCCCCCUCGAGGUCGAUGCAGACAUAUAUGAUACAAUUUGAUCAGUAUAUUAAAGAUAGUUAUGAUUUACAAGCU |  |  |  |  |  |  | 0.03
